Measured values taken from US10266482B2, “Long-term memory inducing agent” (NATIONAL UNIVERSITY CORPORATION TOKYO MEDICAL AND DENTAL …, priority 2017, dated 2019).

How the values were obtained:
[1] = tested on: young crickets; test: AMK-related synthetic compounds inducing long-term memories in young crickets; assay type: in vivo, Gryllus bimaculatus; settings: 3 μl of 1 μg/ml to the brain 20 minutes after single-time training
Procedure: Male (young) crickets about one week old following molting into their adult stage were used. Each of the crickets was placed in a 100 ml beaker three days before the experiment, and deprived of water for 2-3 days to enhance the desire of taking water. As the feed, about 10 pieces of insect feed were placed into the beaker.
In the same manner as “1.2, Olfactory associative conditioning” in Example 1, learning/training for smell and reward associative conditioning was conducted.
In the same manner as “1.3. Smell preference test” in Example 1, a test of smell preference was carried out.
As drugs, the AMK-related synthetic compounds (Compounds 1-10) synthesized in Example 2 above were used. For all of the drugs, 1 mg of the drug was initially dissolved in 100 μl of DMSO, and then diluted with physiological saline for crickets that was 10000 times the amount of the drug solution (final concentration: 1 μg/ml). In the administration experiments, 3 μl was administered to the brain via an aperture opened through a simple eye of the head using a 10-μl syringe.
Processing was conducted in the same manner as “1.5. Statistical processing” in Example 1.

[2] = tested on: young crickets; test: Olfactory associative learning test in young crickets (single-time training, memory a day after); assay type: in vivo, Gryllus bimaculatus; settings: for long-term memory formation a day after the training: 3 μl to the brain
Procedure: Male crickets about one week old (young) or three week old (aged) following molting into adult forms were used. Each of the crickets was placed into a 100 ml beaker three days before the experiment, and deprived of water for 2-3 days to enhance the desire of taking water. As the feed, about 10 pieces of insect feed were placed into the beaker.
A 1-ml syringe was used for smell and reward associative conditioning upon learning/training. The syringe contained water as the reward while a piece of paper (3 mm×3 mm) perfumed with peppermint essence was pierced into the needle to about 1 cm from the tip thereof. In this learning/training, the filter paper on the needle was brought near the antennae of the cricket to allow it to smell for 3 seconds and then a drop of water was put out from the tip of the needle and applied to the mouth of the cricket. When the associative conditioning was conducted for four times, the conditionings were conducted at intervals of 5 minutes.
Smell preference was examined by placing each cricket into a test arena. The arena consisted of a “standby chamber” and a “test chamber”. The floor of the “test chamber” had two holes each with a diameter of 4 cm which were communicated with two smell sources. The smell source was a plastic pot containing filter paper perfumed with essence of a smell (peppermint or vanilla) and covered with a gauze lid. In the preference test, each cricket was placed into the test chamber and allowed to walk freely for 4 minutes to search for the two smell sources. Two minutes after the start of the test, a rotary board having the smell sources was rotated to reverse the positions of the vanilla and the peppermint smells. During the test, the time the cricket spent placing its mouth to the gauze of the smell source was measured as a visiting time to the smell source, and the ratio of the visiting times of the two types of smells (PI value: preference index) was calculated according to the following formula to assess the relative preference to the mint smell. PI value=Tp/(Tp+Tv)×100 • Tp: Searching time for smell associated with the reward (peppermint) • Tv: Searching time for smell not associated with the reward (vanilla)
If the preferences for the two smells are equivalent, PI will be 50. Since crickets inherently prefer vanilla smell over peppermint smell, an average PI value prior to the learning/training is usually 25-35, The preference test was conducted before and after the learning/training to examine whether preference for the smell changes due to the learning/training.
As drugs, melatonin, N(1)-acetyl-N(2)-formyl-5-methoxykynuramine (AFMK), N(1)-acetyl-5-methoxykynuramine (AMK), 6-Hydroxymelatonin (6-HM), L-kynurenine, kynuramine, 8-Bromoguanoine 3′,5′-cyclic monophosphate sodium salt (8 br-cGMP) and cycloheximide (CHX) were used. Melatonin, 6-HM, kynurenine, kynuramine and 8br-cGMP were purchased from SIGMA Aldrich, AFMK was purchased from Cayman Chemical, AMK was purchased from Toronto Research Chemicals and CHX was purchased from Wako Pure Chemical Industries. The drugs other than 8br-cGMP and CHX were first dissolved in ethanol and then diluted with physiological saline for crickets to the respective concentrations. In the administration experiment, 3 μl was administered using a 10-μl syringe to the brain via an aperture opened through a simple eye of the head.
PI values were tested before the training and a day after the training in the same group by a Wilcoxon's-test.

[3] = tested on: aged crickets; test: Olfactory associative learning test in aged crickets (age-related memory disorder, training four times); assay type: in vivo, Gryllus bimaculatus; settings: 500 μM, 3 μl, 20 minutes before training for four times
Procedure: Male crickets about one week old (young) or three week old (aged) following molting into adult forms were used. Each of the crickets was placed into a 100 ml beaker three days before the experiment, and deprived of water for 2-3 days to enhance the desire of taking water. As the feed, about 10 pieces of insect feed were placed into the beaker. A 1-ml syringe was used for smell and reward associative conditioning upon learning/training. The syringe contained water as the reward while a piece of paper (3 mm×3 mm) perfumed with peppermint essence was pierced into the needle to about 1 cm from the tip thereof. In this learning/training, the filter paper on the needle was brought near the antennae of the cricket to allow it to smell for 3 seconds and then a drop of water was put out from the tip of the needle and applied to the mouth of the cricket. When the associative conditioning was conducted for four times, the conditionings were conducted at intervals of 5 minutes. Smell preference was examined by placing each cricket into a test arena. The arena consisted of a “standby chamber” and a “test chamber”. […] The smell source was a plastic pot containing filter paper perfumed with essence of a smell (peppermint or vanilla) and covered with a gauze lid. In the preference test, each cricket was placed into the test chamber and allowed to walk freely for 4 minutes to search for the two smell sources. Two minutes after the start of the test, a rotary board having the smell sources was rotated to reverse the positions of the vanilla and the peppermint smells. During the test, the time the cricket spent placing its mouth to the gauze of the smell source was measured as a visiting time to the smell source, and the ratio of the visiting times of the two types of smells (PI value: preference index) was calculated according to the following formula to assess the relative preference to the mint smell. PI value=Tp/(Tp+Tv)×100 • Tp: Searching time for smell associated with the reward (peppermint) • Tv: Searching time for smell not associated with the reward (vanilla) If the preferences for the two smells are equivalent, PI will be 50. Since crickets inherently prefer vanilla smell over peppermint smell, an average PI value prior to the learning/training is usually 25-35, The preference test was conducted before and after the learning/training to examine whether preference for the smell changes due to the learning/training. […] Melatonin, 6-HM, kynurenine, kynuramine and 8br-cGMP were purchased from SIGMA Aldrich, AFMK was purchased from Cayman Chemical, AMK was purchased from Toronto Research Chemicals and CHX was purchased from Wako Pure Chemical Industries. The drugs other than 8br-cGMP and CHX were first dissolved in ethanol and then diluted with physiological saline for crickets to the respective concentrations. In the administration experiment, 3 μl was administered using a 10-μl syringe to the brain via an aperture opened through a simple eye of the head. PI values were tested before the training and a day after the training in the same group by a Wilcoxon's-test.

[4] = tested on: young mice; test: Object recognition test for young mice (melatonin and melatonin metabolites); assay type: in vivo, ICR mice; settings: i.p. 60 minutes after one one-minute acquisition trial, test trial 24 hours later
Procedure: Two-month-old male ICR mice (young mice) were used. The rearing room was kept at 22° C. at cycles of 12 hours of light period/12 hours of dark period, and feed and drinking water were given freely. All of the experiments were conducted during the latter 6 hours of the light period.
Melatonin (MEL), N(1)-acetyl-N(2)-formyl-5-methoxykynuramine (AFMK), and N(1)-acetyl-5-methoxykynuramine (AMK) were used as drugs. Melatonin was purchased from SIGMA Aldrich, AFMK was purchased from Cayman Chemical, and AMK was purchased from Toronto Research Chemicals. AFMK and AMK were diluted with physiological saline and intraperitoneally administered at a dosage of 0.01 mg/kg bw, 0.1 mg/kg bw or 1.0 mg/kg bw. MEL was diluted with physiological saline containing 1 vol % ethanol, and intraperitoneally administered at a dosage of 1.0 mg/kg bw or 5.0 mg/kg bw. As controls, physiological saline or physiological saline containing 1 vol % ethanol was intraperitoneally administered.
Test was conducted in the same manner as “5.3 Object recognition test” in Example 5.
Processing was conducted in the same manner as “5.4 Statistical processing” in Example 5.

[5] = 5 μM, 20 minutes after single-time training

Structure (SMILES): CC(=O)NCCC(=O)c1ccccc1N [Compound 9, N-[3-(2-aminophenyl)-3-oxopropyl]acetamide]
- effect in inducing long-term memory compared with AMK [1]: superior effects over AMK

Structure (SMILES): Nc1ccccc1C(=O)CC(N)C(=O)O (stereo not drawn) [Compound 16, 3-[(2-aminophenyl)carbonyl]-2-aminopropionic acid]
- long-term memory formation a day after the training [2, 5]: the long-term memories were formed

Structure (SMILES): COc1ccc(NC(C)=O)c(C(=O)CCNC(C)=O)c1 [Compound 13, N-[3-(2-acetylamino-5-methoxyphenyl)-3-oxopropyl]acetamide]
- melting point: 143 to 145 °C

Structure (SMILES): O=C1O[C@H]([C@@H](O)CO)C(O)=C1O [vitamin C]
- improvement in an age-related memory disorder [3]: no improvement

Structure (SMILES): NCCC(=O)c1ccccc1N [Compound 15, 3-amino-1-(2-aminophenyl)-1-propanone]
- long-term memory formation a day after the training [2, 5]: the long-term memories were formed

Structure (SMILES): COc1ccc(N)c(C(=O)CCNC(=O)c2ccccc2OC)c1 [Compound 5, N-[3-(2-amino-5-methoxyphenyl)-3-oxopropyl]-2-methoxybenzamide]
- melting point: 134.5 to 136 °C

Structure (SMILES): CCC(=O)NCCC(=O)c1cc(OC)ccc1N [Compound 2, N-[3-(2-amino-5-methoxyphenyl)-3-oxopropyl]-propionamide]
- effect in inducing long-term memory compared with AMK [1]: superior effects over AMK

Structure (SMILES): CC(=O)NCCC(=O)c1cc(Cl)ccc1N [Compound 8, N-[3-(2-amino-5-chlorophenyl)-3-oxopropyl]-acetamide]
- melting point: 121 to 122 °C
- effect in inducing long-term memory after one day [1]: did not show significant difference with the number of individuals used this time but they showed a tendency to induce long-term memories

Structure (SMILES): N[C@@H](CCC(=O)N[C@@H](CS)C(=O)NCC(=O)O)C(=O)O [glutathione]
- improvement in an age-related memory disorder [3]: no improvement

Structure (SMILES): COc1ccc(N)c(C(=O)CCNC(=O)c2ccccc2)c1 [Compound 3, N-[3-(2-amino-5-methoxyphenyl)-3-oxopropyl]-benzamide]
- effect in inducing long-term memory compared with AMK [1]: superior effects over AMK

Structure (SMILES): Nc1nc2c(nc(Br)n2[C@@H]2O[C@@H]3COP(=O)([O-])O[C@H]3[C@H]2O)c(=O)[nH]1.[Na+] [Compound 8br-cGMP, 8-Bromoguanoine 3′,5′-cyclic monophosphate sodium salt, reference compound]
- long-term memory formation a day after the training ([2]; 200 μM, 20 minutes after single-time training): did not have the effect of inducing long-term memory
- long-term memory formation a day after the training ([2]; 200 μM, 20 minutes before single-time training): confirmed

Structure (SMILES): COc1ccc(N)c(C(=O)CCNC(=O)c2ccccn2)c1 [Compound 7, N-[3-(2-amino-5-methoxyphenyl)-3-oxopropyl]-2-picolinamide]
- melting point: 114 to 115.5 °C
- effect in inducing long-term memory compared with AMK [1]: superior effects over AMK

Structure (SMILES): COc1cc2c(CCNC(C)=O)c[nH]c2cc1O [Compound 6-HM, 6-Hydroxymelatonin, reference compound]
- long-term memory formation a day after the training [2, 5]: a long-term memory was not formed
- long-term memory formation a day after the training ([2]; 5 μM, 20 minutes before single-time training): a long-term memory was not formed

Structure (SMILES): COc1ccc(N)c(C(=O)CCNC(=O)c2ccc3ccccc3c2)c1 [Compound 6, N-[3-(2-amino-5-methoxyphenyl)-3-oxopropyl]-2-naphthamide]
- melting point: 113.5 to 114.5 °C
- effect in inducing long-term memory after one day [1]: did not show significant difference with the number of individuals used this time but they showed a tendency to induce long-term memories

Structure (SMILES): COc1ccc(NC=O)c(C(=O)CCNC(C)=O)c1 [Compound 10, N-[3-(2-formylamino-5-methoxyphenyl)-3-oxopropyl]acetamide]
- administration concentration sufficient to form long-term memory ([2]; 3 μl to the brain 20 minutes after single-time training): 1 µM
- concentration at which the effect of inducing long-term memories was found [4]: 1.0 mg/kg bw
